This is an account of results in patent publication US20120252721A1 (priority 2011, published 2012).

What is called EC50 is the concentration that produces a half-maximal response. What is called CC50 is the concentration at which the toxic effect on the cells reaches its halfway point. A low value points to harm at low concentration.

Series [1] relates to HCV genotype 1b Con1 strain subgenomic luciferase replicon (Zluc). The series is described as follows: Luciferase replicon assay, genotype 1b. The series is classed as cell-based. As to conditions: Hepatitis C virus. As for the experimental part: (§1) The HCV luciferase replicon assay measures the ability of a test compound to inhibit HCV replication in cell culture after 3 days of treatment in a human hepatoma cell line (Huh-7) bearing an HCV replicon containing a luciferase-neomycin phosphotransferase fusion gene. The inhibition of HCV replication was measured by quantification of luciferase protein expression. Briefly, Huh-7 cells containing either the HCV genotype 1a H77 strain or genotype 1b Con1 strain subgenomic luciferase replicon (H1a-luc or Zluc, respectively) were grown in DMEM containing glucose, L-glutamine and sodium pyruvate, 10% fetal bovine serum (FBS), 100 IU/mL penicillin, 100 μg/mL streptomycin, 2 mM GlutaMAX, non-essential amino acids and 0.25 (H1a-luc) or 0.5 (Zluc) mg/mL G418. GlutaMAX was obtained from Invitrogen, Corp.; all other media reagents were obtained from Mediatech, Inc. For dose-response testing, the cells were seeded in 96-well plates at 1×10^4 (H1a-luc) or 7.5×10^3 (Zluc) cells/well in a volume of 50 μL, and incubated at 37° C./5% CO2. Three hours after plating, 50 μL of ten 5-fold serial dilutions of compound were added, and cell cultures were incubated at 37° C./5% CO2 for 72 hours. In all cases, Huh-7 cells lacking the HCV replicon served as negative control. To assess luciferase expression, the media/compound was removed from the plates and ONE-glo Luciferase assay reagent (Promega) was added to each well. The assay plates were shaken for 3 minutes at room temperature and luciferase activity for each well was measured with a 1 sec read time on the Victor^3V multilabel counter using a 700 nm cut-off filter (Perkin Elmer). EC50 values were calculated from dose response curves from the resulting best-fit equations determined by Microsoft Excel and XLfit 4.1 software.
Background: A replicon is a self-replicating genome or part of one, used to study replication in cells.

Series [2] relates to HCV genotype 2a. In words: Genotype 2a assay (NS5A-intergenotypic luciferase replicon / genotype 2a infectious virus assay). The series is classed as cell-based. The settings on record: Hepatitis C virus, read-out: EC50 2a. An excerpt: (§2) The nucleotide sequences of the NS5A region of genotype 2a (GenBank Accession # AB047639), genotype 3a (GenBank Accession #D17763), and genotype 4a (GenBank Accession# DQ418788) were synthesized by an outside vendor. The NS5A region of each of these genotypes included the first 11 amino acids of the protease recognition sequence of genotype 1b, as well as the last 10 amino acids of genotype 1b. The NS5A gene cassettes were excised with site specific restriction endonucleases and ligated into a ZS11-luciferase genotype 1b backbone (backbone contains the genotype 1b NS3 protease, NS4a, NS4b, and NS5b coding regions) with similarly cut restriction enzyme sites. Thus, the newly constructed plasmid contains a genotype 2a-, 3a- or 4a-specific NS5A gene within the 1b-replicon.
(§3) These new intergenotypic plasmids were used to establish stable cell lines. RNA was generated from the NS5A intergenotypic plasmids and used in conjunction with a lipofectin reagent to transfect a cured Huh7 cell line. Transfected cells were selected for with G418. After selection has occurred the stable cell lines were propagated, tested for luciferase activity, and RT-PCR with genotype specific primers (either 1a, 2a, 3a, or 4a). Stable cell lines containing the intergenotypic replicon were then fully sequenced and analyzed for proper expression of NS3, NS5A and NS5B proteins.
(§4) Drug titration analysis was performed using the luciferase replicon assay described herein.
The genotype 2a infectious virus assay measures the ability of a test compound to inhibit HCV replication in cell culture after 5 days of treatment at the time of HCV genotype 2a virus infection of a permissive human hepatoma cell line (HPC cells). The inhibition of HCV replication was measured by quantification of HCV core protein expression by an enzyme-linked immunosorbent assay (ELISA). Briefly, HPC cells were grown in DMEM containing glucose, L-glutamine and sodium pyruvate, 10% FBS, 100 IU/mL penicillin, 100 μg/mL streptomycin, 2 mM GlutaMAX, and non-essential amino acids. GlutaMAX was obtained from Invitrogen, Corp.; all other media reagents were obtained from Mediatech, Inc. For dose-response testing, ninety-six-well plates were seeded with HPC cells at a density of 2.5×10^3 cells/well in a volume of 50 μL, and incubated at 37° C./5% CO2. Three hours after plating, 50 μL of ten 5-fold serial dilutions of compound and 100 μL of genotype 2a virus were added, and cell cultures were incubated at 37° C./5% CO2. In all cases, mock infected HPC cells served as negative control. At 16 hours post treatment and infection, the virus inoculum was removed by aspiration. The cultures were treated at the same final concentrations of drug diluted in media and incubated for 4 additional days at 37° C./5% CO2. Subsequently, the core ELISA was performed as follows. The plates were fixed for 90 seconds with acetone/methanol (1:1, v/v), washed three times with KPL wash solution (KPL, Inc.), blocked for 1 hr at room temperature with TNE buffer containing 10% FBS and then incubated for 2 hr at 37° C. with the anti-HCV core mouse monoclonal antibody (Thermo Scientific) diluted in the same buffer. After washing three times with KPL wash solution, the cells were incubated for 1 hr at 37° C. with an anti-mouse immunoglobulin G-peroxidase conjugate in TNE/10% FBS. After washing as described above, the reaction was developed with O-phenylenediamine (Invitrogen). The reaction was stopped after 30 min with 2 NH2SO4, and absorbance was read at 490 nm in a Victor^3V 1420 multilabel counter (Perkin Elmer) and EC50 concentrations were determined using Microsoft Excel and XLfit 4.1 software.
The HCV luciferase replicon assay measures the ability of a test compound to inhibit HCV replication in cell culture after 3 days of treatment in a human hepatoma cell line (Huh-7) bearing an HCV replicon containing a luciferase-neomycin phosphotransferase fusion gene. […]

The test system of series [3] is HCV genotype 3a NS5A within the 1b-replicon. In words: Luciferase replicon assay, NS5A-intergenotypic stable cell line genotype 3a. The settings on record: Hepatitis C virus, read-out: EC50 3a. It is filed as cell-based.
From the text: as §2, §3, §4, §1

In series [4] the test system is HCV genotype 4a NS5A within the 1b-replicon. In words: Luciferase replicon assay, NS5A-intergenotypic stable cell line genotype 4a. It is filed as cell-based. The settings on record: Hepatitis C virus, read-out: EC50 4a.
From the text: as §2, §3, §4, §1

Series [5] relates to HCV genotype 1a H77 strain subgenomic luciferase replicon (H1a-luc). In words: Luciferase replicon assay, genotype 1a. The settings on record: Hepatitis C virus; genotype 1a; read-out: EC50 1a. It is filed as cell-based. As for the experimental part: as §4, §1
Series [6] can be described thus: in vitro. It is filed as cell-based, human. As to conditions: human; Table 1B, cellular viability. As for the experimental part: For cytotoxicity evaluation, HPC cells were treated with compounds as described above in the absence of the genotype 2a virus and cellular viability was monitored using the Cell Titer 96 AQueous One Solution Cell Proliferation Assay (Promega). Plates were then read at 490 nm in a Victor^3V 1420 multilabel counter (Perkin Elmer) and CC50 concentrations were determined using Microsoft Excel and XLfit 4.1 software.
For cytotoxicity evaluation, H1a-luc or Zluc cells were treated with compounds as described above and cellular viability was monitored using the Cell Titer 96 AQueous One Solution Cell Proliferation Assay (Promega). Plates were then read at 490 nm in a Victor^3V 1420 multilabel counter (Perkin Elmer) and CC50 concentrations were determined using Microsoft Excel and XLfit 4.1 software.

Series [7] concerns HCV. The settings on record: combination therapy (Poynard et al.); cited from earlier work.

Consider `COC(=O)NC(C(=O)N1CCCC1c1ncc(-c2cc3sc(-c4ccc5[nH]c(C6CCCN6C(=O)C(NC(=O)OC)C(C)C)nc5c4)cc3s2)[nH]1)C(C)C` (stereo in doubt) [Compound A176, ((S)-1-{(S)-2-[5-(5-{(S)-2-[1-((S)-2-methoxycarbonylamino-3-methyl-butyryl)-pyrrolidin-2-yl]-3H-benzoimidazol-5-yl}-thieno[3,2-b]thiophen-2-yl)-1H-imidazol-2-yl]-pyrrolidine-1-carbonyl}-2-methyl-propyl)-carbamic acid methyl ester], for which the EC50 in series [1] was below 0.1 nM; in series [2], 0.1 to 1 nM; in series [3] it was 0.1 to 1 nM; in series [4], 0.1 to 1 nM; in series [5], 0.1 to 1 nM. Also, the 50% cytotoxic concentration (CC50) in series [6] lay in the range of 10000 to 75000 nM.
`COC(=O)N[C@H](C(=O)N1CCC[C@H]1c1ncc(-c2ccc(-c3cc4sc(-c5ccc6[nH]c([C@@H]7CCCN7C(=O)[C@H](NC(=O)OC)c7ccccc7)nc6c5)cc4s3)cc2)[nH]1)C(C)C` [Compound A194, [(S)-1-((S)-2-{4-[4-(5-{(S)-2-[1-((R)-2-methoxycarbonylamino-2-phenyl-acetyl)-pyrrolidin-2-yl]-3H-benzoimidazol-5-yl}-thieno[3,2-b]thiophen-2-yl)-phenyl]-1H-imidazol-2-yl}-pyrrolidine-1-carbonyl)-2-methyl-propyl]-carbamic acid methyl ester]: the EC50 in series [1] was below 0.1 nM; in series [2], 1 to 10 nM; in series [3] it was 0.1 to 1 nM; in series [4], below 0.1 nM; in series [5] it was 0.1 to 1 nM. Further, the half-maximal cytotoxic concentration (CC50) in series [6] was above 75000 nM.
`COC(=O)N[C@H](C(=O)N1CCC[C@H]1c1nc2ccc(-c3csc4c(C#Cc5cnc([C@@H]6CCCN6C(=O)[C@H](NC(=O)OC)c6ccccc6)[nH]5)csc34)cc2[nH]1)C(C)C` [Compound A206]: the EC50 in series [1], in series [2], in series [3] and in series [4] was below 0.1 nM throughout. The cytotoxic concentration (CC50) in series [6] was above 75000 nM.
Consider `COC(=O)N[C@@H](C(=O)N1CCCC1c1nc2ccc(-c3csc4c(-c5ccc6[nH]c(C7CCCN7C(=O)[C@H](NC(=O)OC)C(C)C)nc6c5)csc34)cc2[nH]1)c1ccccc1` (stereo partly drawn) [Compound A208], for which the half-maximal effective concentration (EC50) in series [1], in series [2], in series [3], in series [4] and in series [5] was below 0.1 nM throughout. Moreover, in series [6], the 50% cytotoxic concentration (CC50) is above 75000 nM.
As for alpha-interferon and ribavirin, in series [7], the “sustained efficacy, share of patients” value is reported as “about 40%”.
